Consider twelve compounds from US5475114A, “Pyrazolotriazole derivatives” (Yamanouchi Pharmaceutical Co., Ltd., priority 1991, dated 1995).

Assay [1] addresses T1, AII receptor (Oryctolagus cuniculus, UniProt P34976).
T1 construct: A portion of rabbit aorta was excised to prepare a spiral strip specimen; from tissue; host or cells: excised rabbit aorta, spiral strip
T1 sequence (P34976 1-359): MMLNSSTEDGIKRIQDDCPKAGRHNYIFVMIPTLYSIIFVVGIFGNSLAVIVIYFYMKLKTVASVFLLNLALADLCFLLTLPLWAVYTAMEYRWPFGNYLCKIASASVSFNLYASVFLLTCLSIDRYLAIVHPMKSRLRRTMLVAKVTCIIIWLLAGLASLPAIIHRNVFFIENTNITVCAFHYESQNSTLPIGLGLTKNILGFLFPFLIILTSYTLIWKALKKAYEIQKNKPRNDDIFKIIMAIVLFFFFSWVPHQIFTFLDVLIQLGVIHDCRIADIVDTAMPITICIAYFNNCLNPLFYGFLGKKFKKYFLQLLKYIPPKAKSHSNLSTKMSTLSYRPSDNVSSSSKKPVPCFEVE
In words: in vitro: antagonistic effect on AII contraction of an excised rabbit aorta (spiral strip). The class given is cell-based. To be noted: for Kb: negative log of concentration required to shift AII dose-response curve to two times higher concentration, read-out: in vitro (pA2 value) (converted); for IC50: negative log of concentration required to inhibit 50% of the maximum AII contraction, read-out: in vitro (pD2 ' value) (converted). As to the method: The AII receptor-blocking activity of the compound of the present invention was measured based on its antagonistic effect (in vitro) on AII contraction of an excised rabbit aorta and its inhibitory effect (in vivo) on AII-caused pressor reaction in a spinal cord-broken rat.
A portion of rabbit aorta was excised to prepare a spiral strip specimen which was subsequently hung in Krebs-Hensseleit solution. This spiral strip specimen causes a dose-dependent contraction when AII is added to the Krebs-Hensseleit solution. Since a drug having AII receptor-blocking activity causes shifting of the dose-response curve of the AII-based contraction to the high concentration side or reduces maximum contraction by AII, a shifted width of the dose-response curve before and after the addition of each test drug or a maximum contraction inhibiting ratio was calculated.

Assay [2] concerns AII receptor. In words: in vivo: inhibitory effect on AII-caused pressor reaction in a spinal cord-broken rat. To be noted: dose which decreases 30 mm Hg of blood pressure after AII administration (100 ng/kg/min continuous iv). As to the method: The AII receptor-blocking activity of the compound of the present invention was measured based on its antagonistic effect (in vitro) on AII contraction of an excised rabbit aorta and its inhibitory effect (in vivo) on AII-caused pressor reaction in a spinal cord-broken rat. In vivo test: An in vivo test was carried out by inserting cannulae into an aorta and a vein of a spinal cord-broken rat under artificial respiration. […] Since a drug having AII receptor-blocking activity inhibits the AII-caused continuous blood pressure increase in a dose-dependent manner, the AII antagonistic function of the test drug was examined based on the decreasing width of blood pressure after administration of the test drug.

Structures can show the parent of a compound that is named as a salt.

On to `CCc1nc2c(CC)cn(Cc3ccc(-c4ccccc4-c4nn[nH]n4)cc3)n2n1` [Example 100, 2,7-diethyl-5-[[2'-(tetrazol-5-yl)biphenyl-4-yl]methyl]-5H-pyrazolo[1,5-b][1,2,4]triazole potassium salt], for which the Kb at AII receptor [1] was 1.55 nM.

Consider `CCc1nc2c(CC)c(CO)n(Cc3ccc(-c4ccccc4-c4nn[nH]n4)cc3)n2n1` [Example 98], for which the Kb on AII receptor [1] is 0.955 nM. In the assay with AII receptor [2], the “in vivo (IC30 mmHg (mg/kg, iv))” value was 0.02 mg/kg.

Take `CCc1nc2c(CC)c(C(=O)OC)n(Cc3ccc(-c4ccccc4-c4nn[nH]n4)cc3)n2n1` [Example 102, methyl 2,7-diethyl-5-[[2'-(tetrazol-5-yl)biphenyl-4-yl]methyl]-5H-pyrazolo[1,5-b][1,2,4]triazole-6-carboxylate sodium salt]: the Kb at AII receptor [1] was 0.724 nM.

In the case of `CCc1nc2c(CC)c(C(=O)O)n(Cc3ccc(-c4ccccc4-c4nn[nH]n4)cc3)n2n1` [Example 99, 2,7-diethyl-5-[[2'-(tetrazol-5-yl)biphenyl-4-yl]methyl]-5H-pyrazolo[1,5-b][1,2,4]'triazole-6-carbonic acid], on AII receptor [1], the IC50 was 0.49 nM.

Regarding `CCc1nc2c(CC)c(COC)n(Cc3ccc(-c4ccccc4-c4nnn[nH]4)cc3)n2n1` [Example 95, 2,7-diethyl-6-methoxymethyl-5-[[2'-(tetrazol-5-yl)biphenyl-4-yl]methyl]-5H-pyrazolo[1,5-b][1,2,4]triazole], the Kb on AII receptor [1] was 1.41 nM. Also, the “in vivo (IC30 mmHg (mg/kg, iv))” value in the assay with AII receptor [2] is given as 0.06 mg/kg.

In the case of `CCc1cn(Cc2ccc(-c3ccccc3-c3nnn[nH]3)cc2)n2nc(C)nc12` [Example 53, 7-ethyl-2-methyl-5-[[2'-(tetrazol-5-yl)biphenyl-4-yl]methyl]-5H-pyrazolo[1,5-b][1,2,4]triazole], the Kb on AII receptor [1] is 3.16 nM. The “in vivo (IC30 mmHg (mg/kg, iv))” value in the assay on AII receptor [2] amounted to 0.01 mg/kg.

For the compound `CCc1nc2c(CC)cn(Cc3ccc(-c4ccccc4-c4nnn[nH]4)cc3)n2n1` [Example 52, 2,7-diethyl-5-[[2'-(tetrazol-5-yl)biphenyl-4-yl]methyl]-5H-pyrazolo[1,5-b][1,2,4]triazole], the Kb at AII receptor [1] was 2.24 nM. For the same compound, in the assay with AII receptor [2], the “in vivo (IC30 mmHg (mg/kg, iv))” value turned out to be 0.025 mg/kg.

Consider `CCc1nc2c(CC)c(C=O)n(Cc3ccc(-c4ccccc4-c4nn[nH]n4)cc3)n2n1` [Example 96, 2,7-diethyl-5-[[2'-(tetrazol-5-yl)biphenyl-4-yl]methyl]-5H-pyrazolo[1,5-b][1,2,4]triazole-6-carboxyaldehyde], for which, on AII receptor [1], the Kb was 0.692 nM. Also, the “in vivo (IC30 mmHg (mg/kg, iv))” value in the assay on AII receptor [2] was 0.02 mg/kg.

As for `CCc1nc2c(C(C)C)cn(Cc3ccc(-c4ccccc4-c4nnn[nH]4)cc3)n2n1` [Example 57, 2-ethyl-7-isopropyl-5-[[2'-(tetrazol-5-yl)biphenyl-4-yl]methyl]-5H-pyrazolo[1,5-b][1,2,4]triazole], on AII receptor [1], the Kb is 3.02 nM. Moreover, in the assay on AII receptor [2], the “in vivo (IC30 mmHg (mg/kg, iv))” value is reported as 0.04 mg/kg.

For the compound `CCOC(=O)OC(C)OC(=O)c1c(CC)c2nc(CC)nn2n1Cc1ccc(-c2ccccc2-c2nnn[nH]2)cc1` (stereo not drawn) [Example 105, 1-ethoxycarbonyloxyethyl 2,7-diethyl-5-[[2'-(tetrazol-5-yl)biphenyl-4-yl]methyl]-5H-pyrazolo[1,5-b][1,2,4]triazole-6-carboxylate], at AII receptor [1], the IC50 was 0.933 nM.

Take `CCCCc1nc(Cl)c(CO)n1Cc1ccc(-c2ccccc2-c2nn[nH]n2)cc1` [Dup 753, reference compound]: the “in vivo (IC30 mmHg (mg/kg, iv))” value in the assay on AII receptor [2] is on record as 0.1 mg/kg.

Regarding `CCOC(=O)c1c(CC)c2nc(CC)nn2n1Cc1ccc(-c2ccccc2-c2nnn[nH]2)cc1` [Example 101, ethyl 2,7-diethyl-5-[[2'-(tetrazol-5-yl)biphenyl-4-yl]methyl]-5H-pyrazolo[1,5-b][1,2,4] triazole-6-carboxylate], on AII receptor [1], the Kb is 0.562 nM.
